Measured values from article PMC10302582, “Unveiling the Potential of BenzylethyleneAryl–Urea Scaffolds for the Design of New Onco Immunomodulating Agents” (Pharmaceuticals, 2023).

How the values were obtained:
[1] = system: HT-29 (colon adenocarcinoma); experiment: MTT cell proliferation assay, HT-29; format: cell-based; conditions: Homo sapiens, HT-29; MTT, 48 h treatment; read-out: IC50 HT-29
Description: (§1) After the supernatant was discarded, we solved the formazan crystal in 100 µL of DMSO. The absorbance was then registered at 550 nm using a plate lector. For all concentrations of any compound, cell viability was expressed as the percentage of the ratio between the mean absorbance of the treated cells and the mean absorbance of the untreated cells. Three to five experiments were performed to establish the IC50 values (i.e., concentration half inhibiting cell proliferation, we used GraphPad Prism 7 software).

[2] = system: A-549 (pulmonary adenocarcinoma); experiment: MTT cell proliferation assay, A-549; format: cell-based; conditions: Homo sapiens, A549; MTT, 48 h treatment; read-out: IC50 A-549
Description: as §1

[3] = system: HEK-293 (human embryonic kidney cells); experiment: MTT cell proliferation assay, HEK-293; format: cell-based; conditions: HEK293, 48 h treatment
Description: (§2) The action on cell proliferation caused by our developed compounds was studied using an MTT assay using the human tumor cell lines of HT-29 (colon adenocarcinoma) and A-549 (pulmonary adenocarcinoma), as well as toward the non-tumor cell line HEK-293 (human embryonic kidney cells), Jurkat T-cells and human microvessel endothelial cells (HMEC-1).
(§3) In general, 5 × 10^3 (HT-29, A549, HMEC-1, Jurkat and HEK-293) cells per well were seeded in 96-well plates with 1:1 dilutions of the compounds in a volume of 100 μL of the cell media. The 3-(4,5-dimethylthiazol-2-yl)-2,5-diphenyltetrazolium bromide (MTT; Sigma Chemical Co.) dye exclusion assay was performed, and after 48 h (37 °C, 5% CO2 in a humid atmosphere), 10 μL of MTT (5 mg/mL in phosphate-buffered saline, PBS) was added to each well and incubated for 3 h at 37 °C. After the supernatant was discarded, we solved the formazan crystal in 100 µL of DMSO. The absorbance was then registered at 550 nm using a plate lector. For all concentrations of any compound, cell viability was expressed as the percentage of the ratio between the mean absorbance of the treated cells and the mean absorbance of the untreated cells. Three to five experiments were performed to establish the IC50 values (i.e., concentration half inhibiting cell proliferation, we used GraphPad Prism 7 software).

Jurkat T-cells = experiment: MTT cell proliferation assay, Jurkat T-cells; format: cell-based; conditions: Homo sapiens, Jurkat, 48 h, 48 h treatment
Description: as §2, §3

PD-L1 = biological target: T1, PD-L1 (Homo sapiens, UniProt Q9NZQ7); experiment: PD-L1 relative quantification by flow cytometry in HT-29 cells; format: cell-based; conditions: for total PD-L1 (%) expression: HT-29 cells, 24 h, relative to DMSO control = 100
T1 construct: assess the effect of our new ureas on these two proteins only on the HT-29 cancer cell line through the use of flow cytometry; endogenous in cells; host or cells: HT-29
T1 sequence (Q9NZQ7 19-290): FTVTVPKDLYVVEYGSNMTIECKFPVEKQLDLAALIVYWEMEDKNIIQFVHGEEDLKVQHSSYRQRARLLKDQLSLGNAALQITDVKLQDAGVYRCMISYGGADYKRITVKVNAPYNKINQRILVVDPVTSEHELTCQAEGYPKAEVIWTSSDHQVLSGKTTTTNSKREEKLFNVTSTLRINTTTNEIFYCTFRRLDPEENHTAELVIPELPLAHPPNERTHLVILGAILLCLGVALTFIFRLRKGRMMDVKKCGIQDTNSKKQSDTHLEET
Description: (§4) The cells were incubated for a period of time of one day with doses of each of the selected compounds at two different doses: 20 and 100 µM concentrations.
The effects of the compounds on the target in the cancer cell lines compounds were tested using 20 and 100 µM doses. For that, 10^5 cells per well were seeded on a 12-well plate for 24 h with the corresponding dose of the tested compound in a total volume of 500 μL of cell media. To determine the total PD-L1 and VEGFR-2, the cells were collected and fixed with 4% in a PBS of formaldehyde. After this, a treatment with 0.5% in PBS Triton^TM X-100 permeabilized the membranes. Finally, the cells were treated with FITC Mouse monoclonal Anti-Human VEGFR-2 (ab184903) and Alexa Fluor® 647 Rabbit monoclonal Anti-PD-L1 (ab215251).
(§5) To determine surface PD-L1 and VEGFR-2, the assay used was similar to the above but avoided the permeabilization step (Triton^TM X-100).

VEGFR-2 = biological target: T2, VEGFR-2 (Homo sapiens, UniProt P35968); experiment: VEGFR-2 relative quantification by flow cytometry in HT-29 cells; format: cell-based; conditions: HT-29 cells, 20 μM, 24 h, relative to DMSO control = 100
T2 construct: assess the effect of our new ureas on these two proteins only on the HT-29 cancer cell line through the use of flow cytometry; endogenous in cells; host or cells: HT-29
T2 sequence (P35968 20-1356): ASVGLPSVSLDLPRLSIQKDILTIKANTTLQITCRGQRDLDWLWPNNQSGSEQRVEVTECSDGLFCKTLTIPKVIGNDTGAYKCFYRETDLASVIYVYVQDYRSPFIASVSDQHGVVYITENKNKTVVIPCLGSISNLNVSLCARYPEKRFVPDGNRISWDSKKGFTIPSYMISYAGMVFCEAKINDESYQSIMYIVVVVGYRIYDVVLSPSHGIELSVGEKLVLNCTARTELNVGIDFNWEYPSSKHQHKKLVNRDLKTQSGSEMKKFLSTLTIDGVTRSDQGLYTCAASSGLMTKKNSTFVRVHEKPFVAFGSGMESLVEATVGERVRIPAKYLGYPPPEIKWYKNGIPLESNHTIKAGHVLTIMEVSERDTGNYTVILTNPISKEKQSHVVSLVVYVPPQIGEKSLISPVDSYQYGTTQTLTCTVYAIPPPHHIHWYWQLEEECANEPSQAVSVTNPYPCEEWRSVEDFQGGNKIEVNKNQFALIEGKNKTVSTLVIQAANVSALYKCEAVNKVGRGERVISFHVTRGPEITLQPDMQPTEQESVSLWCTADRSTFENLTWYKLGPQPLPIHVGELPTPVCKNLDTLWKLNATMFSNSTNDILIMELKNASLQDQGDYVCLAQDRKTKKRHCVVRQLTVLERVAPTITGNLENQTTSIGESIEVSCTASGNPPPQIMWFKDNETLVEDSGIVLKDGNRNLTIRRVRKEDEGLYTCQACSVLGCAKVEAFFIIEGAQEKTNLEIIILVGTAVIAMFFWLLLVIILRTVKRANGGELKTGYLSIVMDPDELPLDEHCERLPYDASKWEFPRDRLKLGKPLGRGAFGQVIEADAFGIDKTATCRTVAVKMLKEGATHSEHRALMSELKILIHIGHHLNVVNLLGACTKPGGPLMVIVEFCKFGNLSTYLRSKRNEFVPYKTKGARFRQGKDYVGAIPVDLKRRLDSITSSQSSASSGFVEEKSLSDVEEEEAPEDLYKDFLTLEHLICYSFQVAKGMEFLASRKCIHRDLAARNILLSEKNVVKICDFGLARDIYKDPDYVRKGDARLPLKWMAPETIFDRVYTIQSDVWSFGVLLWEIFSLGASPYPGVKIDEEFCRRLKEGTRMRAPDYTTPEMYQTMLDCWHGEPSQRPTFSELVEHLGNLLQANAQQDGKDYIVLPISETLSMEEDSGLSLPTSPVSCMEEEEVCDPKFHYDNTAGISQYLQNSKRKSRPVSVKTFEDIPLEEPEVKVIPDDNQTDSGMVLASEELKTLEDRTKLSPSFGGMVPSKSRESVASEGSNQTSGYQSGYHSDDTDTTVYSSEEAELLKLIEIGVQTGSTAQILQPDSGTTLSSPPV
Description: as §4
The effects of the compounds on the target in the cancer cell lines compounds were tested using 20 and 100 µM doses. For that, 10^5 cells per well were seeded on a 12-well plate for 24 h with the corresponding dose of the tested compound in a total volume of 500 μL of cell media. To determine the total PD-L1 and VEGFR-2, the cells were collected and fixed with 4% in a PBS of formaldehyde. After this, a treatment with 0.5% in PBS Triton^TM X-100 permeabilized the membranes.
as §5

[4] = system: HT-29 cells co-cultured with THP-1; experiment: Cancer cell proliferation in co-cultures of HT-29 and THP-1; format: cell-based, human; conditions: 100 μM
Description: To establish the potential of the selected compounds as immunomodulator agents, we studied the effect of the selected compounds on HT-29 cell proliferation when co-cultured with human monocytic leukemia cell line THP-1. For the study, we used different proportions of cancer and immune cells. Standard protocol proportions were 1:5 cancer/immune cells. We include a test using a 2:1 proportion of HT-29 cells to THP-1 cells. The tests were performed for two periods of time: 24 and 48 h, using 100 μM doses of the selected compounds and BMS-8 as the reference compound.
(§6) To determine the action of the compounds on cancer cell proliferation in co-culture with immune cells, 10^5 or 2 × 10^5 of the HT-29 cells line were seeded in each well of 12-well plates and left at 37 °C for 24 h. Then, the cancer cells were treated with IFN-γ (10 ng/mL; human, Invitrogen®, Waltham, MA, USA) containing 5 × 10^5 or 10^5, respectively, of THP-1 cells per well and the corresponding compound at 100 μM or DMSO for the positive control. After 24 h/48 h of incubation, the supernatants were collected to establish the alive THP-1 cells using FSC and SCC flow cytometry. In addition, cancer cells were collected with trypsin, fixed with 4% in PBS paraformaldehyde and counted using flow cytometry.

[5] = system: THP-1 cells co-cultured with HT-29; experiment: Immune cell proliferation in co-cultures of HT-29/THP-1; format: cell-based, human; conditions: 100 μM
Description: We also determined the effect of the selected compounds on the human monocyte cells THP-1 in the described co-cultures (see Table 6).
as §6

CD80 = CD80 detection on membrane of co-cultured THP-1; format: cell-based, human; conditions: 1:5 HT-29/THP-1; 24 h; relative to non-treated co-cultured THP-1
Description: (§7) Reducing the expression of CD11b has become a promising target for immune modulation in anticancer therapies. For that reason, we decided to study the effect of our compounds on CD11b in THP-1 cells co-cultured with HT-29. We also determined the relative amount of CD80, a common surface marker for monocytes.
(§8) The results are related to non-treated THP-1 cells when they were co-cultured with HT-29.
(§9) The action of the compounds on CDs in co-cultured THP-1 immune cells with cancer cell line HT-29 was tested by treating them with the compounds for 24 h/48 h (see Section 4.2.5). Surface CD11b and CD80 was determined by collecting THP-1 with trypsin, fixing with formaldehyde and staining with FITC Mouse monoclonal Anti-Human CD80 (Sigma-Aldrich SAB4700142) and Alexa Fluor® 647 Rabbit monoclonal Anti-CD11b (Merck #MABF366, Rahway, NJ, USA).

CD11b = CD11b detection on membrane of co-cultured THP-1; format: cell-based, human; conditions: 1:5 HT-29/THP-1; 24 h; relative to non-treated co-cultured THP-1
Description: as §7, §8, §9

Cc1c(COc2ccc(CN3CCCCC3C(=O)O)cc2Br)cccc1-c1ccccc1 (stereo not drawn) [BMS-8, reference compound]
IC50 [1]: 19 ± 2 µM
IC50 [2]: 6 ± 1 µM
IC50 [3]: 60 ± 10 µM
IC50 (Jurkat T-cells): > 100 µM
inhibition of PD-L1 expression (PD-L1; HT-29, total PD-L1, 20 μM): around 15%
total PD-L1 (%) expression (PD-L1; 20 μM): 82 ± 21%
total PD-L1 (%) expression (PD-L1; 100 μM): 67 ± 20%
total VEGFR-2 (%) expression (VEGFR-2): 86 ± 21%
HT-29 cancer cell proliferation in co-culture ([4]; 1:5 HT-29/THP-1, 24 h): 11 ± 6
HT-29 cancer cell proliferation in co-culture ([4]; 1:5 HT-29/THP-1, 48 h): 21 ± 3
HT-29 cancer cell proliferation in co-culture ([4]; 2:1 HT-29/THP-1, 24 h): 8 ± 1
HT-29 cancer cell proliferation in co-culture ([4]; 2:1 HT-29/THP-1, 48 h): 16 ± 2
THP-1 cell proliferation in co-culture ([5]; 1:5 HT-29/THP-1, 24 h): 158 ± 6
THP-1 cell proliferation in co-culture ([5]; 1:5 HT-29/THP-1, 48 h): 124 ± 0
THP-1 cell proliferation in co-culture ([5]; 2:1 HT-29/THP-1, 24 h): 385 ± 12
THP-1 cell proliferation in co-culture ([5]; 2:1 HT-29/THP-1, 48 h): 186 ± 10
% CD80 expression in membrane of THP-1 (CD80): 93 ± 3%
% CD11b expression in membrane of THP-1 (CD11b): 79 ± 5%
